The values that follow are results of earlier work, collected in patent US10022338B2, “Honey bee mite disruptive compounds and methods of application” (SIMON FRASER UNIVERSITY, priority 2014, dated 2018).

This data set has as its system olfactory sensory organ on the Varroa foreleg. As to conditions: separate study.

As for `CCN(CC)C(=O)c1cccc(C)c1` [DEET, 3-methyl-N,N-diethylbenzamide], the “short-term inhibition of Varroa's response to bee headspace” value is on record as “not significant”. In addition, the “long-term inhibition of Varroa's response to bee headspace” value (high dose) was “long-term inhibit”.
